The structures appear in SMILES notation. Active and inactive are the calls of the source. No cut-off for these calls is given here.

Data set [1] deals with BMMC. Kind of data set: Reduction in M-CSF/RANKL-induced Trap/Acp5 mRNA levels in C57BL/6 mouse BMMC at 20 uM after 3 days by RT-qPCR analysis. In kind it is functional, cell-based. (In general: Real-time PCR tracks product formation cycle by cycle.)
For data set [2], the system named is BMMC. Kind of data set: Downregulation of M-CSF/RANKL-induced NFATc1 protein expression levels in C57BL/6 mouse BMMC after 3 days by Western blot analysis. In kind it is functional, cell-based.
Data set [3] relates to BMMC. Kind of data set: Cytotoxicity against C57BL/6 mouse BMMC at 5 to 20 uM after 3 days in presence of M-CSF/RANKL by MTT assay. In kind it is cell-based. As to conditions: 72 h.
Data set [4] addresses Matrix metalloproteinase-9 (Mus musculus) (UniProt P41245). Kind of data set: Inhibition of MMP9 activity in C57BL/6 mouse BMMC at 5 to 20 uM by coomassie blue staining-based gelatin zymography assay. Type of data set: cell-based.
For data set [5], the system named is BMMC. Kind of data set: Downregulation of M-CSF/RANKL-induced CTSK protein expression levels in C57BL/6 mouse BMMC at 20 uM after 3 days by Western blot analysis. In kind it is functional, cell-based. (A western blot detects proteins with antibodies after separation by electrophoresis.)
Data set [6] relates to BMMC. Kind of data set: Inhibition of M-CSF/RANKL-induced osteoclast differentiation in C57BL/6 mouse BMMC assessed as decrease in multinucleated TRAP+ cells after 3 days by TRAP staining-based assay. In kind it is functional, cell-based.
For data set [7], the system named is BMMC. Kind of data set: Reduction in M-CSF/RANKL-induced NFATc1 mRNA levels in C57BL/6 mouse BMMC at 20 uM after 3 days by RT-qPCR analysis. Type of data set: functional, cell-based.
For data set [8], the system named is Mus musculus. Kind of data set: Antiperiodontitic activity in BALB/c mouse model of Porphyromonas gingivalis-induced periodontitis assessed as reduction in maxillary tissue CtsK mRNA levels at 100 ug/kg, id dosed once in 2 days for 30 days. Type of data set: functional, organism-based.
The subject of data set [9] is BMMC. Kind of data set: Inhibition of M-CSF/RANKL-induced osteoclast differentiation in C57BL/6 mouse BMMC assessed as decrease in multinucleated TRAP+ cells at 20 uM after 3 days by TRAP staining-based assay. In kind it is functional, cell-based.
Data set [10] relates to BMMC. Kind of data set: Downregulation of M-CSF/RANKL-induced integrin alphaV protein expression levels in C57BL/6 mouse BMMC at 20 uM after 3 days by Western blot analysis. In kind it is functional, cell-based.
Data set [11] deals with BMMC. Kind of data set: Reduction in M-CSF/RANKL-induced Ctsk mRNA levels in C57BL/6 mouse BMMC at 20 uM after 3 days by RT-qPCR analysis. Type of data set: functional, cell-based.
In data set [12] the test system is Mus musculus. Kind of data set: Antiperiodontitic activity in BALB/c mouse model of Porphyromonas gingivalis-induced periodontitis assessed as reduction in alveolar bone resorption at 100 ug/kg, id dosed once in 2 days for 30 days. Type of data set: functional, organism-based.
In data set [13] the test system is BMMC. Kind of data set: Inhibition of M-CSF/RANKL-induced matrix resorption capacity in C57BL/6 mouse BMMC at 10 to 20 uM after 4 days in hydroxyapatite-coated plates. Type of data set: functional, cell-based.
Data set [14] relates to BMMC. Kind of data set: Reduction in M-CSF/RANKL-induced MMP-9 mRNA levels in C57BL/6 mouse BMMC at 20 uM after 3 days by RT-qPCR analysis. Type of data set: functional, cell-based.
Data set [15] relates to Mus musculus. Kind of data set: Antiperiodontitic activity in BALB/c mouse model of Porphyromonas gingivalis-induced periodontitis assessed as reduction in maxillary tissue Mmp9 mRNA levels at 100 ug/kg, id dosed once in 2 days for 30 days. In kind it is functional, organism-based.
Data set [16] relates to BMMC. Kind of data set: Reduction in M-CSF/RANKL-induced Itgb3 mRNA levels in C57BL/6 mouse BMMC at 20 uM after 3 days by RT-qPCR analysis. Type of data set: functional, cell-based.
Data set [17] has as its system Mus musculus. Kind of data set: Antiperiodontitic activity in BALB/c mouse model of Porphyromonas gingivalis-induced periodontitis assessed as reduction in maxillary tissue Trap/Acp5 mRNA levels at 100 ug/kg, id dosed once in 2 days for 30 days. In kind it is functional, organism-based.
Data set [18] concerns BMMC. Kind of data set: Reduction in M-CSF/RANKL-induced V-ATPase mRNA levels in C57BL/6 mouse BMMC at 20 uM after 3 days by RT-qPCR analysis. Type of data set: functional, cell-based.

Matrix metalloproteinase-9 (Mus musculus), sequence (P41245 whole entry): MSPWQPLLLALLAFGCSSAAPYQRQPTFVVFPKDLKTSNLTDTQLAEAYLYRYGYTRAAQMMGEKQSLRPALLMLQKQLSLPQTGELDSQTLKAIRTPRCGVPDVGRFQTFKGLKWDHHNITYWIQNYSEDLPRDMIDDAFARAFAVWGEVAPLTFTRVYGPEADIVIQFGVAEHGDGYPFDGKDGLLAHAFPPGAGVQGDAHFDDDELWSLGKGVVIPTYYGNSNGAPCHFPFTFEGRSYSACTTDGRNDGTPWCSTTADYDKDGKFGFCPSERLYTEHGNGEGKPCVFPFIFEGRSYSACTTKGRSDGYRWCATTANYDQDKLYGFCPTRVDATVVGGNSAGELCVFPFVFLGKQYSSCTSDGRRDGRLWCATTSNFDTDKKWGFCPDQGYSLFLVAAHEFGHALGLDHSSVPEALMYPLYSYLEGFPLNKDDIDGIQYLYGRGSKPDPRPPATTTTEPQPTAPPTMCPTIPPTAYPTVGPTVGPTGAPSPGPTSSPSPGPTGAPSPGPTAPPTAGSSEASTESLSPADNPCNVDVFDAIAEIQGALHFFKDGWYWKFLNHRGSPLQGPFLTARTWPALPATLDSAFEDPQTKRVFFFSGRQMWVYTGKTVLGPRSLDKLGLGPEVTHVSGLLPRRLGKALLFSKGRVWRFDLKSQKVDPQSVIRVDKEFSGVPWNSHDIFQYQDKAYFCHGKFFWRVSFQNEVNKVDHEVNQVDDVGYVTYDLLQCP

Take `CC(C)=CCc1c(O)c(C(=O)CC(C)COC(=O)/C=C/c2ccccc2)c(O)c2c(-c3ccccc3)cc(=O)oc12` (stereo not drawn): the result in [1], in data set [5], in [7], in data set [8], in data set [10] and in data set [11] was Active. The outcome in data set [12], in [14], in [16], in data set [17] and in [18] was Active. Further, the Activity entry in data set [2] was “Dose-dependent effect”; in [3] it was “Non-Toxic”. Further, the inhibition entry in [4], in data set [9] and in data set [13] was “Active” in each case. In [6], the inhibition result was “Dose-dependent effect”. The result in [15] was inactive.

(Values after ChEMBL document CHEMBL4190203, “Effects of Cinnamoyloxy-mammeisin from Geopropolis on Osteoclast Differentiation and Porphyromonas gingivalis-Induced Periodontitis” (J Nat Prod, 2017).)
